Earlier results as cited in PMC2831206 (Journal of medicinal chemistry, 2010).

Legend:
learning and memory = details: rodents
PDE9A = details: read-out: IC50 with PDE9A

| Compound | effect on learning and memory (learning and memory) | IC50 (PDE9A) |
| --- | --- | --- |
| C[C@H](Cc1nc2c(cnn2-c2ccccc2Cl)c(=O)[nH]1)C(F)(F)F [compound 1, 1-(2-chlorophenyl)-6-(3,3,3-trifluoro-2-methylpropyl)-1H-pyrazolo[3,4-d]pyrimidine-4(5H)-one] | ability to improve learning and memory in rodents | – |
| CC(C)Cn1c(=O)n(C)c(=O)c2nc[nH]c21 [IBMX, 3-isobutyl-1-methylxanthine] | – | > 200 µM |
